Laboratory results as given in paper PMC9781104 (Pharmaceutics, 2022).
Where two headings read alike, the source gives them in different places.

Tests used:
[1] = Pharmacokinetic panel study in CYP2D6-genotyped healthy female volunteers (observed plasma AUClast/Cmax, DGI and DD(G)I with clarithromycin or paroxetine); assay type: in vivo, human
Description: Clinical data from a recently performed pharmacokinetic panel study (EudraCT-Nr.: 2009-014531-20, ClinicalTrails.gov: NCT01289756) were used for PBPK model development. The study protocol, patient information sheet and consent form were approved by the Ethics Committee of the University of Tübingen and the German Federal Institute for Drugs and Medical Devices (BfArM). All study participants had signed an informed consent form.
The study was conducted in 20 healthy, Caucasian, premenopausal female volunteers that were genotyped for CYP2D6 polymorphisms and subsequently assigned to predicted phenotypes according to the respective CYP2D6 activity score (AS) as depicted in Table 1 [17, 18]. […] After a wash-out phase of at least three weeks, clomiphene was administered concomitantly with the strong CYP3A4 inhibitor clarithromycin [19]. Here, the participants received 500 mg clarithromycin twice daily for four days. On day 5, a single dose of clomiphene citrate was administered together with 500 mg clarithromycin. Finally, in the third period, all subjects received clomiphene citrate together with the strong CYP2D6 inhibitor paroxetine. Here, 40 mg paroxetine was administered once daily for two days. On day 3, participants received a single dose of clomiphene citrate concomitantly with 40 mg paroxetine (Figure 1).
For the evaluation of DGI and DD(G)I effects, the predicted AUClast and Cmax effect ratios were calculated according to Equations (4) and (5) and compared with the corresponding observed values. Here, model performance was assessed using the prediction acceptance limits proposed by Guest et al. with 1.25-fold variability. (4) AUClast, AS=i ratio=AUClast, effect, AS=i/AUClast, control (5) Cmax, AS=i ratio=Cmax, effect, AS=i/Cmax, control
For the calculation of DGI ratios, AUClast, effect, AS=i and Cmax, effect, AS=i represent the AUClast and Cmax for CYP2D6 AS = i, while AUClast, control and Cmax, control are the AUClast and Cmax values for the NM (AS = 2) population. For the calculation of DD(G)I ratios, AUClast, effect, AS=i and Cmax, effect, AS=i represent the AUClast and Cmax for the CYP2D6 AS = i in the DD(G)I scenario with clarithromycin or paroxetine, while AUClast, control and Cmax, control are the AUClast and Cmax values for the CYP2D6 AS = i without the concomitant use of perpetrator drugs.

[2] = tested on: CYP2D6; assay: Fraction metabolized via CYP2D6 calculated from observed AUClast (PM vs NM, Equation S1); assay type: in vivo, human; conditions: calculated from observed relative AUClast increase PM vs NM
Description: Calculation of Fractions Metabolized
(§1) (normal metabolizers (NM)) [39]. […] In addition, data from
(§2) the CYP2D6 NM population in the clarithromycin DDI scenario (CYP3A4 inhibition) was used to
(§3) For this, the observed relative AUClast increase in the NM population between
(§4) the DDI scenario with CYP3A4 inhibition and the control scenario without inhibition was used,
(§5) 1 −fm = AUClast,effect,AS=iAUClast,control (S1)

[3] = tested on: CYP3A4; assay: Fraction metabolized via CYP3A4 calculated from observed AUClast (NM with vs without clarithromycin, Equation S1); assay type: in vivo, human; conditions: estimated from observed AUClast increase in NM with clarithromycin
Description: Calculation of Fractions Metabolized
as §1, §2, §3, §4
Of note, a complete CYP3A4 inhibition through clarithromycin
was assumed, given the strong and mechanism-based inhibition through clarithromycin, which was
as §5
for the NM population without concomitant clarithromycin administration.

[4] = Bioavailability calculated from literature AUC0-24h after oral and intravenous clomiphene citrate; assay type: in vivo, human; conditions: 50 mg clomiphene citrate; intravenous study n = 2
Text: Both isomers show highly distinct pharmacokinetic characteristics and also differ in affinity to the target receptor [22, 28]. […] While the calculated value from the literature is based on an intravenous study with a small number of study participants (n = 2), a low bioavailability can be supported with the developed PBPK model.

[5] = tested on: CYP2D6; assay: In vitro scaling factors from CYP2D6 activity score-specific in vitro metabolite formation rates; assay type: in vitro ADME, human
Text: Here, kcat, AS=i represents the catalytic rate constant for CYP2D6 AS = i, kcat, AS=2 is the catalytic rate constant for the NM population and IVSFi is the corresponding in vitro scaling factor (IVSF).
S2. Drug-Gene-Interaction (DGI) Modeling
S2.1. CYP2D6 in vitro Scaling Factors
The estimated CYP2D6 kcat values for the NM population were extrapolated to the intermediate metabolizers (IM) (AS=0.5, AS=0.75 and AS=1) and ultrarapid metabolizers (UM) populations according to Equation 1 in the main manuscript, using in vitro scaling factors (IVSFs). Determination of IVSFs were based on AS-specific in vitro metabolite formation rates relative to the corresponding formation rate in NM as a reference. The respective IVSFs for each CYP2D6-dependent pathway are depicted in Table S8. Measured in vitro data for (E)-4-OH-Clom and (E)-4-OH-DE-Clom AS-specific formation rates were available, while mean values were assumed for the remaining CYP2D6-dependent metabolic pathways.
Table S8. Employed in vitro scaling factors (IVSFs) for individual CYP2D6 activity scores. […]

[6] = tested on: CYP2D6; conditions: cited from earlier work; for Km: literature value adapted with fu,inc
[7] = tested on: CYP3A4; design: method as in ref [17, 18] of supplement; conditions: literature value adapted with fu,inc; ref [17, 18] of supplement; read-out: CYP3A4 Km → (E)-DE-Clom; cited from earlier work
[8] = tested on: CYP2B6; design: method as in ref [17, 18] of supplement; conditions: literature value adapted with fu,inc; ref [17, 18] of supplement; read-out: CYP2B6 Km → (E)-4-OH-Clom; cited from earlier work
[9] = cited from earlier work

Q: What does the source list for CCN(CC)CCOc1ccc(/C(=C(/Cl)c2ccccc2)c2ccccc2)cc1 [(E)-Clom, (E)-clomiphene, reference compound]?
A: order of AUClast across CYP2D6 phenotypes ([1]; DGI setting): AUCPM > AUCIM > AUCNM > AUCUM; exposure increase in clarithromycin DD(G)I scenario vs control ([1]; NM): ~ 15%; AUClast increase with concomitant paroxetine ([1]; all phenotypes except PM): 2.5–12 fold; AUClast change during CYP3A4 inhibition ([1]; clarithromycin, all phenotypes): slight increase; fraction metabolized (fm) via CYP2D6 [2]: ~90%; fraction metabolized (fm) via CYP3A4 [3]: approximately 13%; bioavailability calculated from reported AUC0-24h after oral and intravenous application [4]: ~ 6.3%; IVSF, CYP2D6-mediated pathway → (E)-DE-Clom ([5]; AS=0, mean value assumed): 0; IVSF, CYP2D6-mediated pathway → undef. ([5]; AS=0, mean value assumed): 0; IVSF, CYP2D6-mediated pathway → (E)-4-OH-Clom ([5]; AS=0, relative to NM, from in vitro formation rates, supplement ref [17]): 0; IVSF, CYP2D6-mediated pathway → (E)-DE-Clom ([5]; AS=0.5, mean value assumed): 0.17; IVSF, CYP2D6-mediated pathway → undef. ([5]; AS=0.5, mean value assumed): 0.17; IVSF, CYP2D6-mediated pathway → (E)-4-OH-Clom ([5]; AS=0.5, relative to NM, from in vitro formation rates, supplement ref [17]): 0.19; IVSF, CYP2D6-mediated pathway → (E)-DE-Clom ([5]; AS=0.75, mean value assumed): 0.23; IVSF, CYP2D6-mediated pathway → undef. ([5]; AS=0.75, mean value assumed): 0.23; IVSF, CYP2D6-mediated pathway → (E)-4-OH-Clom ([5]; AS=0.75, relative to NM, from in vitro formation rates, supplement ref [17]): 0.27; IVSF, CYP2D6-mediated pathway → (E)-DE-Clom ([5]; AS=1, mean value assumed): 0.51; IVSF, CYP2D6-mediated pathway → undef. ([5]; AS=1, mean value assumed): 0.51; IVSF, CYP2D6-mediated pathway → (E)-4-OH-Clom ([5]; AS=1, relative to NM, from in vitro formation rates, supplement ref [17]): 0.57; IVSF, CYP2D6-mediated pathway → (E)-4-OH-Clom ([5]; AS=2 (NM, reference)): 1; IVSF, CYP2D6-mediated pathway → (E)-DE-Clom ([5]; AS=2 (NM, reference)): 1; IVSF, CYP2D6-mediated pathway → undef. ([5]; AS=2 (NM, reference)): 1; IVSF, CYP2D6-mediated pathway → (E)-DE-Clom ([5]; AS=3, mean value assumed): 1.41; IVSF, CYP2D6-mediated pathway → undef. ([5]; AS=3, mean value assumed): 1.41; IVSF, CYP2D6-mediated pathway → (E)-4-OH-Clom ([5]; AS=3, relative to NM, from in vitro formation rates, supplement ref [17]): 1.52; intrinsic clearance of CYP2D6 pathway to (Z)-3-hydroxyclomiphene compared to formation of (E)-4-OH-Clom ([6]; higher, ref [19] of supplement): 1.8 fold; Km ([6]; ref [17, 18] of supplement, read-out: CYP2D6 Km → (E)-DE-Clom): 0.78 µM; Km ([6]; ref [19] ((E)-Clom, (E)-4-OH-Clom), [17, 18] ((E)-DE-Clom) of supplement, read-out: CYP2D6 Km → undef.): 0.03 µM; Km ([6]; ref [19] of supplement, read-out: CYP2D6 Km → (E)-4-OH-Clom): 0.13 µM; Km [7]: 0.78 µM; Km [8]: 0.6 µM; Solubility (pH 6.8) ([9]; pH 6.8, ref [24] of supplement): 0.0138 mg/ml; pKa (base), literature ([9]; ref [23], [30], [34], [38] of supplement (ChemAxon Chemicalize)): 9.31
